Key:
Assay in all cases: cells
[1] = system: BV-173; assay type: functional, cell-based; details: Homo sapiens
Description: SANGER: Inhibition of human BV-173 cell growth in a cell viability assay.

[2] = system: BB30-HNC; assay type: functional, cell-based, Homo sapiens; details: Homo sapiens, BB30-HNC;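 further: growth inhibition of the cultured cell line, read out by a cell viability assay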
Description: SANGER: Inhibition of human BB30-HNC cell growth in a cell viability assay.

[3] = system: RPMI-8866; assay type: functional, cell-based; details: Homo sapiens
Description: SANGER: Inhibition of human RPMI-8866 cell growth in a cell viability assay.

[4] = system: TK-10; assay type: functional, cell-based, Homo sapiens; details: Homo sapiens, TK-10;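 further: growth inhibition of TK-10 cells, read out in a cell viability assay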
Description: SANGER: Inhibition of human TK10 cell growth in a cell viability assay.

[5] = system: HT-29; assay type: functional, cell-based, Homo sapiens; details: Homo sapiens, HT-29;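 further: growth inhibition of human HT-29 cells, read out by a cell viability assay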
Description: SANGER: Inhibition of human HT-29 cell growth in a cell viability assay.

[6] = system: SK-PN-DW; assay type: functional, cell-based; details: Homo sapiens;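 further: growth inhibition measured with a viability assay on these cells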
Description: SANGER: Inhibition of human SK-PN-DW cell growth in a cell viability assay.

[7] = system: CP50-MEL-B; assay type: functional, cell-based, Homo sapiens; details: Homo sapiens, CP50-MEL-B;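 further: growth inhibition of the human cell line, measured with a cell viability read-out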
Description: SANGER: Inhibition of human CP50-MEL-B cell growth in a cell viability assay.

[8] = system: DJM-1; assay type: functional, cell-based, Homo sapiens; details: Homo sapiens, DJM-1;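 further: growth inhibition of human DJM-1 cells, read out by a cell viability assay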
Description: SANGER: Inhibition of human DJM-1 cell growth in a cell viability assay.

[9] = system: LXF-289 cell line; assay type: functional, cell-based, Homo sapiens; details: Homo sapiens, LXF-289
Description: SANGER: Inhibition of human LXF-289 cell growth in a cell viability assay.

[10] = system: CAL-12T; assay type: functional, cell-based, Homo sapiens; details: Homo sapiens, CAL-12T;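 further: growth inhibition of human CAL-12T cells, read out with a cell viability assay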
Description: SANGER: Inhibition of human CAL-12T cell growth in a cell viability assay.

[11] = system: A204; assay type: functional, cell-based, Homo sapiens; details: Homo sapiens, A204;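 further: growth inhibition of human A204 cells, read out with a cell viability assay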
Description: SANGER: Inhibition of human A204 cell growth in a cell viability assay.

[12] = system: LU-99A; assay type: functional, cell-based, Homo sapiens; details: Homo sapiens, LU-99A;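 further: growth inhibition of LU-99A cells, read out with a cell viability assay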
Description: SANGER: Inhibition of human LU-99A cell growth in a cell viability assay.

[13] = system: MHH-ES-1; assay type: functional, cell-based, Homo sapiens; details: Homo sapiens, MHH-ES-1;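 further: cell growth inhibition measured by a cell viability assay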
Description: SANGER: Inhibition of human MHH-ES-1 cell growth in a cell viability assay.

[14] = system: LN-405; assay type: functional, cell-based, Homo sapiens; details: Homo sapiens, LN-405
Description: SANGER: Inhibition of human LN-405 cell growth in a cell viability assay.

[15] = system: KYSE-180; assay type: functional, cell-based, Homo sapiens; details: Homo sapiens, KYSE-180;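 further: growth inhibition of KYSE-180 cells, read out with a cell viability assay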
Description: SANGER: Inhibition of human KYSE-180 cell growth in a cell viability assay.

[16] = system: CGTH-W-1; assay type: functional, cell-based, Homo sapiens; details: Homo sapiens, CGTH-W-1;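 further: growth inhibition of human CGTH-W-1 cells measured by cell viability assay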
Description: SANGER: Inhibition of human CGTH-W-1 cell growth in a cell viability assay.

[17] = system: PANC-03-27; assay type: functional, cell-based, Homo sapiens; details: Homo sapiens, PANC-03-27
Description: SANGER: Inhibition of human PANC-03-27 cell growth in a cell viability assay.

[18] = system: NCI-H2170; assay type: functional, cell-based, Homo sapiens; details: Homo sapiens, NCI-H2170;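 further: cell viability assay measuring growth inhibition of human NCI-H2170 cancer cells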
Description: SANGER: Inhibition of human NCI-H2170 cell growth in a cell viability assay.

[19] = system: COR-L88; assay type: functional, cell-based; details: Homo sapiens;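 further: growth inhibition of COR-L88 cells, read out with a cell viability assay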
Description: SANGER: Inhibition of human COR-L88 cell growth in a cell viability assay.

[20] = system: NCI-H1623; assay type: functional, cell-based, Homo sapiens; details: Homo sapiens, NCI-H1623;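 further: cell viability assay used as the read-out for growth inhibition of NCI-H1623 cells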
Description: SANGER: Inhibition of human NCI-H1623 cell growth in a cell viability assay.

[21] = system: HSC-2; assay type: functional, cell-based, Homo sapiens; details: Homo sapiens, HSC-2;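 further: growth inhibition of human HSC-2 cells, read out by a cell viability assay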
Description: SANGER: Inhibition of human HSC-2 cell growth in a cell viability assay.

[22] = system: COLO-792; assay type: functional, cell-based, Homo sapiens; details: Homo sapiens, COLO-792
Description: SANGER: Inhibition of human COLO-792 cell growth in a cell viability assay.

[23] = system: BHT-101; assay type: functional, cell-based, Homo sapiens; details: Homo sapiens, BHT-101
Description: SANGER: Inhibition of human BHT-101 cell growth in a cell viability assay.

[24] = system: LAMA-84; assay type: functional, cell-based; details: Homo sapiens;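 further: growth inhibition of LAMA-84 cells, read out with a cell viability assay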
Description: SANGER: Inhibition of human LAMA-84 cell growth in a cell viability assay.

[25] = system: SHP77; assay type: functional, cell-based, Homo sapiens, SHP-77; details: Homo sapiens, SHP77;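 further: growth inhibition of human SHP-77 cells measured by a cell viability assay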
Description: SANGER: Inhibition of human SHP-77 cell growth in a cell viability assay.

[26] = system: J82; assay type: functional, cell-based; details: Homo sapiens;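 further: growth inhibition of J82 cells, read out with a cell viability assay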
Description: SANGER: Inhibition of human J82 cell growth in a cell viability assay.

[27] = system: COLO-678; assay type: functional, cell-based, Homo sapiens; details: Homo sapiens, COLO-678
Description: SANGER: Inhibition of human COLO-678 cell growth in a cell viability assay.

[28] = system: BPH-1; assay type: functional, cell-based, Homo sapiens; details: Homo sapiens, BPH-1;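 further: cell viability assay measuring growth inhibition of human BPH-1 cells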
Description: SANGER: Inhibition of human BPH-1 cell growth in a cell viability assay.

[29] = system: A-427; assay type: functional, cell-based, Homo sapiens; details: Homo sapiens, A-427;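 further: growth inhibition of human A-427 cells, read out by a cell viability assay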
Description: SANGER: Inhibition of human A427 cell growth in a cell viability assay.

[30] = system: LAN-6; assay type: functional, cell-based, Homo sapiens; details: Homo sapiens, LAN-6;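 further: growth inhibition of LAN-6 cells, determined with a cell viability assay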
Description: SANGER: Inhibition of human LAN-6 cell growth in a cell viability assay.

[31] = system: C2BBe1; assay type: functional, cell-based, Homo sapiens; details: Homo sapiens, C2BBe1;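 further: growth inhibition of C2BBe1 cells, read out through a viability assay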
Description: SANGER: Inhibition of human C2BBe1 cell growth in a cell viability assay.

[32] = system: TE-9; assay type: functional, cell-based, Homo sapiens; details: Homo sapiens, TE-9;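 further: cell growth inhibition, measured with a cell viability readout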
Description: SANGER: Inhibition of human TE-9 cell growth in a cell viability assay.

[33] = system: J-RT3-T3-5; assay type: functional, cell-based; details: Homo sapiens;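 further: cell viability assay measuring growth inhibition of human J-RT3-T3-5 cells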
Description: SANGER: Inhibition of human J-RT3-T3-5 cell growth in a cell viability assay.

[34] = system: KNS-42; assay type: functional, cell-based, Homo sapiens; details: Homo sapiens, KNS-42;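 further: growth inhibition of KNS-42 cells, read out with a cell viability assay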
Description: SANGER: Inhibition of human KNS-42 cell growth in a cell viability assay.

[35] = system: D-502MG; assay type: functional, cell-based, Homo sapiens; details: Homo sapiens, D-502MG
Description: SANGER: Inhibition of human D-502MG cell growth in a cell viability assay.

[36] = system: COLO-680N; assay type: functional, cell-based, Homo sapiens; details: Homo sapiens, COLO-680N;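 further: cell viability assay used to measure inhibition of COLO-680N cell growth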
Description: SANGER: Inhibition of human COLO-680N cell growth in a cell viability assay.

[37] = system: SAOS-2; assay type: functional, cell-based, Homo sapiens; details: Homo sapiens, SAOS-2;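 further: growth inhibition of human Saos-2 cells determined by a cell viability assay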
Description: SANGER: Inhibition of human Saos-2 cell growth in a cell viability assay.

[38] = system: 769-P; assay type: functional, cell-based, Homo sapiens; details: Homo sapiens, 769-P
Description: SANGER: Inhibition of human 769-P cell growth in a cell viability assay.

[39] = system: NCI-H2122; assay type: functional, cell-based, Homo sapiens; details: Homo sapiens, NCI-H2122;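 further: growth inhibition of the cells, read out with a cell viability assay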
Description: SANGER: Inhibition of human NCI-H2122 cell growth in a cell viability assay.

[40] = system: CTB-1; assay type: functional, cell-based; details: Homo sapiens
Description: SANGER: Inhibition of human CTB-1 cell growth in a cell viability assay.

[41] = system: NCI-H28; assay type: functional, cell-based, Homo sapiens; details: Homo sapiens, NCI-H28;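 further: growth inhibition of human NCI-H28 cells, read out as cell viability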
Description: SANGER: Inhibition of human NCI-H28 cell growth in a cell viability assay.

[42] = system: GAK; assay type: functional, cell-based, Homo sapiens; details: Homo sapiens, GAK;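 further: cell growth inhibition read out by a cell viability assay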
Description: SANGER: Inhibition of human GAK cell growth in a cell viability assay.

[43] = system: Calu-6; assay type: functional, cell-based, Homo sapiens; details: Homo sapiens, Calu-6;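 further: growth of human Calu-6 cells, read out by a cell viability assay, IC50 marking inhibition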
Description: SANGER: Inhibition of human Calu-6 cell growth in a cell viability assay.

[44] = system: PC-14; assay type: functional, cell-based, Homo sapiens; details: Homo sapiens, PC-14;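 further: cell viability assay measuring inhibition of PC-14 cell growth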
Description: SANGER: Inhibition of human PC-14 cell growth in a cell viability assay.

[45] = system: VM-CUB-1; assay type: functional, cell-based; details: Homo sapiens;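 further: cell viability assay measuring growth inhibition of the human VM-CUB-1 cell line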
Description: SANGER: Inhibition of human VM-CUB-1 cell growth in a cell viability assay.

[46] = system: SNU-C2B; assay type: functional, cell-based, Homo sapiens; details: Homo sapiens, SNU-C2B;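 further: cell viability readout used to measure compound-driven suppression of SNU-C2B cell proliferation, IC50 marking half-maximal growth inhibition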
Description: SANGER: Inhibition of human SNU-C2B cell growth in a cell viability assay.

[47] = system: NB13; assay type: functional, cell-based, Homo sapiens; details: Homo sapiens, NB13;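 further: cell viability readout measuring growth inhibition of human NB13 cells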
Description: SANGER: Inhibition of human NB13 cell growth in a cell viability assay.

[48] = system: HD-MY-Z; assay type: functional, cell-based, Homo sapiens; details: Homo sapiens, HD-MY-Z;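 further: growth inhibition of HD-MY-Z cells, read out with a cell viability assay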
Description: SANGER: Inhibition of human HD-MY-Z cell growth in a cell viability assay.

[49] = system: GT3TKB; assay type: functional, cell-based, Homo sapiens; details: Homo sapiens, GT3TKB;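 further: growth inhibition of the cell line, read out with a cell viability assay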
Description: SANGER: Inhibition of human GT3TKB cell growth in a cell viability assay.

[50] = system: YKG-1; assay type: functional, cell-based, Homo sapiens; details: Homo sapiens, YKG-1;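 further: cell growth inhibition, read out with a viability assay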
Description: SANGER: Inhibition of human YKG-1 cell growth in a cell viability assay.

[51] = system: SK-MEL-28; assay type: functional, cell-based; details: Homo sapiens;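 further: growth inhibition of human SK-MEL-28 cells, read out with a cell viability assay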
Description: SANGER: Inhibition of human SK-MEL-28 cell growth in a cell viability assay.

Structure (SMILES): C=CCNC1=C2C[C@@H](C)C[C@H](OC)[C@H](O)[C@@H](C)/C=C(\C)[C@H](OC(N)=O)[C@@H](OC)/C=C\C=C(/C)C(=O)NC(=CC1=O)C2=O [TANESPIMYCIN]
- IC50 [1]: 687 nM
- IC50 [2]: 173 nM
- IC50 [3]: > 1000 nM
- IC50 [4]: 231 nM
- IC50 [5]: 69.2 nM
- IC50 [6]: > 1000 nM
- IC50 [7]: 34.5 nM
- IC50 [8]: > 1000 nM
- IC50 [9]: 4.19 nM
- IC50 [10]: 428 nM
- IC50 [11]: 22.5 nM
- IC50 [12]: 62.4 nM
- IC50 [13]: 237 nM
- IC50 [14]: 417 nM
- IC50 [15]: 92.6 nM
- IC50 [16]: 23.5 nM
- IC50 [17]: 103 nM
- IC50 [18]: 175 nM
- IC50 [19]: 49.1 nM
- IC50 [20]: > 1000 nM
- IC50 [21]: 341 nM
- IC50 [22]: 313 nM
- IC50 [23]: > 1000 nM
- IC50 [24]: > 1000 nM
- IC50 [25]: 905 nM
- IC50 [26]: 273 nM
- IC50 [27]: 240 nM
- IC50 [28]: 134 nM
- IC50 [29]: 420 nM
- IC50 [30]: > 1000 nM
- IC50 [31]: 222 nM
- IC50 [32]: 218 nM
- IC50 [33]: > 1000 nM
- IC50 [34]: > 1000 nM
- IC50 [35]: > 1000 nM
- IC50 [36]: 194 nM
- IC50 [37]: 879 nM
- IC50 [38]: 213 nM
- IC50 [39]: 97.4 nM
- IC50 [40]: 328 nM
- IC50 [41]: 118 nM
- IC50 [42]: 136 nM
- IC50 [43]: > 1000 nM
- IC50 [44]: 132 nM
- IC50 [45]: 36.6 nM
- IC50 [46]: 580 nM
- IC50 [47]: 368 nM
- IC50 [48]: 109 nM
- IC50 [49]: 59.4 nM
- IC50 [50]: 50.7 nM
- IC50 [51]: 113 nM

Structure (SMILES): Cn1cncc1[C@@](N)(c1ccc(Cl)cc1)c1ccc2c(c1)c(-c1cccc(Cl)c1)cc(=O)n2C [TIPIFARNIB]
- IC50 [1]: 2380 nM
- IC50 [2]: 585 nM
- IC50 [3]: > 16000 nM
- IC50 [4]: 5680 nM
- IC50 [5]: 547 nM
- IC50 [6]: 15500 nM
- IC50 [7]: > 16000 nM
- IC50 [8]: > 16000 nM
- IC50 [9]: 4130 nM
- IC50 [10]: 760 nM
- IC50 [11]: 3580 nM
- IC50 [12]: 7090 nM
- IC50 [13]: 5270 nM
- IC50 [14]: > 16000 nM
- IC50 [15]: 3370 nM
- IC50 [16]: 5010 nM
- IC50 [17]: 5730 nM
- IC50 [18]: 8390 nM
- IC50 [19]: > 16000 nM
- IC50 [20]: > 16000 nM
- IC50 [21]: 5200 nM
- IC50 [22]: 12200 nM
- IC50 [23]: 3090 nM
- IC50 [24]: 6420 nM
- IC50 [25]: 9940 nM
- IC50 [26]: 4180 nM
- IC50 [27]: > 16000 nM
- IC50 [28]: 2240 nM
- IC50 [29]: 579 nM
- IC50 [30]: 14100 nM
- IC50 [31]: > 16000 nM
- IC50 [32]: > 16000 nM
- IC50 [33]: 1320 nM
- IC50 [34]: 5760 nM
- IC50 [35]: > 16000 nM
- IC50 [36]: 5630 nM
- IC50 [37]: > 16000 nM
- IC50 [38]: 4190 nM
- IC50 [39]: 191 nM
- IC50 [40]: 7810 nM
- IC50 [41]: > 16000 nM
- IC50 [42]: 3800 nM
- IC50 [43]: 1280 nM
- IC50 [44]: > 16000 nM
- IC50 [45]: 5760 nM
- IC50 [46]: 10400 nM
- IC50 [47]: 4620 nM
- IC50 [48]: > 16000 nM
- IC50 [49]: 3010 nM
- IC50 [50]: 526 nM
- IC50 [51]: > 16000 nM

From ChEMBL document CHEMBL1201861, “Genomics of Drug Sensitity in Cancer screening data, Wellcome Trust Sanger Institute”
